Test results published in ChEMBL document CHEMBL5465560, “Selectivity Literature for EUbOPEN Chemogenomic Library” (2024).
Values belong to the compound of their own block, whether it stands above or below them.

What was measured:
[1] = biological target: Ribosomal protein S6 kinase alpha-1 (Homo sapiens, UniProt Q15418); experiment: Selectivity interaction (Ambit KINOMEscan and KiNATiv profiling in Jurkat cells) EUB0000090b RPS6KA1; format: cell-based; conditions: at 1 µM
[2] = biological target: T1, Inhibitor of nuclear factor kappa-B kinase subunit epsilon (Homo sapiens) (UniProt Q14164); experiment: Selectivity interaction (KinomeScan (DiscoverX)) EUB0000618a IKBKE; conditions: at 10 µM
T1 sequence (whole entry): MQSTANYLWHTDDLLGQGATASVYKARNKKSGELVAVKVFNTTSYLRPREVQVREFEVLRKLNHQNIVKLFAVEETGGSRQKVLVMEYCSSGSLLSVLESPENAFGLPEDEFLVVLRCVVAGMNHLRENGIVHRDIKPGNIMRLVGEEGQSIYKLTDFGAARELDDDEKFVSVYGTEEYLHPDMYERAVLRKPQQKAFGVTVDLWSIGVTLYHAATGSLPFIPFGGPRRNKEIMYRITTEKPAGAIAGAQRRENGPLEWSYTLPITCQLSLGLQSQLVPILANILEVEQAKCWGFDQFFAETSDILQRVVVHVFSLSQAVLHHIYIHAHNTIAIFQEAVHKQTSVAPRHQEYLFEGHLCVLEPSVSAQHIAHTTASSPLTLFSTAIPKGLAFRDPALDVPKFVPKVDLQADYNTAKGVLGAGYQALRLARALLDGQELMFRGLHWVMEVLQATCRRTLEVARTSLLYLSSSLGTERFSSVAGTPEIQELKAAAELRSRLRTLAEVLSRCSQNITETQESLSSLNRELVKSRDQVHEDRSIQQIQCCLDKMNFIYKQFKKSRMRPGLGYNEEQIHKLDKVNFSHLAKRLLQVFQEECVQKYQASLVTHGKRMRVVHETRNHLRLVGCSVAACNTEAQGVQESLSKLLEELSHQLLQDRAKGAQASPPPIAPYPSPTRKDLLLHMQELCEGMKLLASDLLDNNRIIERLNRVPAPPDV

[3] = biological target: T2, Eukaryotic elongation factor 2 kinase (Homo sapiens) (UniProt O00418); experiment: Selectivity interaction (SelectScreen profiling (Invitrogen)) EUB0000607a EEF2K; conditions: at 2 µM
T2 sequence (whole entry): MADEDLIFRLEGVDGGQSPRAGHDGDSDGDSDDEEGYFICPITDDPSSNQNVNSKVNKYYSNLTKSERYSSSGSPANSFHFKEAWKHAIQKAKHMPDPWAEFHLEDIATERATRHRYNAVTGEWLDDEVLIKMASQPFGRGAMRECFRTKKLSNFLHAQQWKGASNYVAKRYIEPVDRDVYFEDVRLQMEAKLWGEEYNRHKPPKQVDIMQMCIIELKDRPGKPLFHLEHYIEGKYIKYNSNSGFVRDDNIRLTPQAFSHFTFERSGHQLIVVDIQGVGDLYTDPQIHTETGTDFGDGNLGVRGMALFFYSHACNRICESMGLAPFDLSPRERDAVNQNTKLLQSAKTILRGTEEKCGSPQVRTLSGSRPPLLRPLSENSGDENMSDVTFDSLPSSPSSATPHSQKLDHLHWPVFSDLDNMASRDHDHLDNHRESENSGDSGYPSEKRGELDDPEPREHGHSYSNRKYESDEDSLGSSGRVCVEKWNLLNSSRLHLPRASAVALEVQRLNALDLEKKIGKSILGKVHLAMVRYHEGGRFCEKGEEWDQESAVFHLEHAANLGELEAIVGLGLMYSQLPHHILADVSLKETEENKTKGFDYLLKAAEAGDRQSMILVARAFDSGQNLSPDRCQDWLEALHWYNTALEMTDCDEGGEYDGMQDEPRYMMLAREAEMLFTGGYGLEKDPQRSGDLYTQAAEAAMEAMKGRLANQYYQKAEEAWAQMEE

[4] = biological target: T3, Activin receptor type-1B (Homo sapiens) (UniProt P36896); experiment: Selectivity interaction (KinomeScan (DiscoverX)) EUB0000045b ACVR1B
T3 sequence (whole entry): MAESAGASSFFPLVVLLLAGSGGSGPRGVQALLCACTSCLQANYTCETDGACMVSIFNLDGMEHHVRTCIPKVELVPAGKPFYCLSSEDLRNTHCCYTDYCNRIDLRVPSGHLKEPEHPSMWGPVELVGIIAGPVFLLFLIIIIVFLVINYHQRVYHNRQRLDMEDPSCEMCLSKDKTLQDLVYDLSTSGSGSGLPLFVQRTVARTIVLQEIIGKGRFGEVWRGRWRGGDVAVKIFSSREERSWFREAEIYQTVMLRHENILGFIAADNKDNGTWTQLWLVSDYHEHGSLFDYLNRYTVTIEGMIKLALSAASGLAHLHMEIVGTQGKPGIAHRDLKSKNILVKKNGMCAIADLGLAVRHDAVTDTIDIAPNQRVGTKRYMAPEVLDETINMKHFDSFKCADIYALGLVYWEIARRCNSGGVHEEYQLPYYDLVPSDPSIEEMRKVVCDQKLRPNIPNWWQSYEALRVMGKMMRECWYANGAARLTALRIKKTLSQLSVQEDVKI

[5] = biological target: Interleukin-1 receptor-associated kinase 1 (Homo sapiens) (UniProt P51617); experiment: Selectivity interaction (KinomeScan (DiscoverX)) EUB0000045b IRAK1
Sequence of Interleukin-1 receptor-associated kinase 1 (Homo sapiens) (P51617 whole entry, looked up): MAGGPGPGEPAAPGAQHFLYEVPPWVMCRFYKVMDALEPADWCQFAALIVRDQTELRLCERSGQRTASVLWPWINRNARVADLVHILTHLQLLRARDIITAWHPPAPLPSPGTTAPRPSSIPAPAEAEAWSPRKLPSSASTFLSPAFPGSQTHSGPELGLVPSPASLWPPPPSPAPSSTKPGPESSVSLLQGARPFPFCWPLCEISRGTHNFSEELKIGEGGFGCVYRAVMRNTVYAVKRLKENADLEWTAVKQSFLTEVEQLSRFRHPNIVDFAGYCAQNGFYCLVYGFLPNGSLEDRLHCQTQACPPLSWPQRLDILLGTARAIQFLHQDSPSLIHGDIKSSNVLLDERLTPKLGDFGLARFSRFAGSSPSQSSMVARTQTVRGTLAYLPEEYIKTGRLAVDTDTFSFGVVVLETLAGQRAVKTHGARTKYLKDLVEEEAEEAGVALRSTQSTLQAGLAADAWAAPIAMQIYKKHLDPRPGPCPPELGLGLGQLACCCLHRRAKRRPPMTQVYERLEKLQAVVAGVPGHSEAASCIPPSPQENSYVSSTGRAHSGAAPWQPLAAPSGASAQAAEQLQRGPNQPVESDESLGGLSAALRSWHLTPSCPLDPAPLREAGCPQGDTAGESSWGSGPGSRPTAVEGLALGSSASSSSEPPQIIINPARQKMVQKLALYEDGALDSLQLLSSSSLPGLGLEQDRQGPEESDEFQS

[6] = biological target: Fibroblast growth factor receptor 1 (Homo sapiens, UniProt P11362)
Sequence of Fibroblast growth factor receptor 1 (P11362 whole entry): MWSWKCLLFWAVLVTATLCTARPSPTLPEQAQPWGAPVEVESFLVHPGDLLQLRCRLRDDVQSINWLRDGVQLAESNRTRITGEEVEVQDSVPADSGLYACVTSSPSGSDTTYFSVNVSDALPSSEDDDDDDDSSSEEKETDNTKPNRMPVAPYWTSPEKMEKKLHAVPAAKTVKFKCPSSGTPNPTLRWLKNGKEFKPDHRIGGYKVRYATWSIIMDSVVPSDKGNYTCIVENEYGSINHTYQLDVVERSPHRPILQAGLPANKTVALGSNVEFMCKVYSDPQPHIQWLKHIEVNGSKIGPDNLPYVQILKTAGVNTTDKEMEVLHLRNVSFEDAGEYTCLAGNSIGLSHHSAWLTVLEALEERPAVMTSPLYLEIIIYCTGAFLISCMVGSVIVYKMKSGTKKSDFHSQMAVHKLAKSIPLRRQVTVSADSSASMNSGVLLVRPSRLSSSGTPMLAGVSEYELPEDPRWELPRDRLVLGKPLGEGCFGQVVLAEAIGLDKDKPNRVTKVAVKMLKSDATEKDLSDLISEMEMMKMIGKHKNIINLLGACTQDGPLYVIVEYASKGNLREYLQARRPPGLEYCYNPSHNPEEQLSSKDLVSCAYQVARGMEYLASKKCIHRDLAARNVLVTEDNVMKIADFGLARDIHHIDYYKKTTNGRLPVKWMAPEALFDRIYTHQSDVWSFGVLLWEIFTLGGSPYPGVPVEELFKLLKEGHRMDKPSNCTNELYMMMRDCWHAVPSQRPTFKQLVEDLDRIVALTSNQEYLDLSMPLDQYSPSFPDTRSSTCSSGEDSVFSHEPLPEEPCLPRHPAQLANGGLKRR

[7] = biological target: Protein-tyrosine kinase 2-beta (Homo sapiens) (UniProt Q14289); experiment: Selectivity interaction (KinomeScan (DiscoverX)) EUB0000229b PTK2B; conditions: at 10 µM
Sequence of Protein-tyrosine kinase 2-beta (Homo sapiens) (Q14289 whole entry, looked up): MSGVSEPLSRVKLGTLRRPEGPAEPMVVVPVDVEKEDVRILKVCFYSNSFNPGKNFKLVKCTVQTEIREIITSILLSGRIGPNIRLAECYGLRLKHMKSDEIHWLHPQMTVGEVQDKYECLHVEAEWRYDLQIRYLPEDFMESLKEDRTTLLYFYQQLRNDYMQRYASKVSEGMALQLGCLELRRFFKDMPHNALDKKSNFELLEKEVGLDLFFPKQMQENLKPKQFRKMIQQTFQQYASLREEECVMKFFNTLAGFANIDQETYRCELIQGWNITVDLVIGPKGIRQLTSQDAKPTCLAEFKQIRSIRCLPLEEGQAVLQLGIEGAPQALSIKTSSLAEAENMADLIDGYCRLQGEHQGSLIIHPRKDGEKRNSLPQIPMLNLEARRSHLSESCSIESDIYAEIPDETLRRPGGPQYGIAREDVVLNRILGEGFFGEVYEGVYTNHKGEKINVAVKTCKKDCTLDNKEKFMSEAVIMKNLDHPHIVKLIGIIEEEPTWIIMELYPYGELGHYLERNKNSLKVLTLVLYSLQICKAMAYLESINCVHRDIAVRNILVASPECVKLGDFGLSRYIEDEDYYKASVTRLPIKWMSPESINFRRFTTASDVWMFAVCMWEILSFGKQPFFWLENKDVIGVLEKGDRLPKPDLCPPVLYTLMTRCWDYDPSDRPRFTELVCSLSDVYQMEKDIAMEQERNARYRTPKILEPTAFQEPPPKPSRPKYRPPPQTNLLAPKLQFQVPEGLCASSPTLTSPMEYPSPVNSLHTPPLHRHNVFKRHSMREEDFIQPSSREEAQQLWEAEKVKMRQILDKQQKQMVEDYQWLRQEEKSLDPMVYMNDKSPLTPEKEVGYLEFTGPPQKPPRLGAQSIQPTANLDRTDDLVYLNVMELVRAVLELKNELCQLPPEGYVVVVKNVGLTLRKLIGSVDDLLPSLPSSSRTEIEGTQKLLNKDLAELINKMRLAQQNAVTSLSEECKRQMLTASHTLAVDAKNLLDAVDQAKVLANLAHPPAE

Sequence of Ribosomal protein S6 kinase alpha-1 (Q15418 whole entry): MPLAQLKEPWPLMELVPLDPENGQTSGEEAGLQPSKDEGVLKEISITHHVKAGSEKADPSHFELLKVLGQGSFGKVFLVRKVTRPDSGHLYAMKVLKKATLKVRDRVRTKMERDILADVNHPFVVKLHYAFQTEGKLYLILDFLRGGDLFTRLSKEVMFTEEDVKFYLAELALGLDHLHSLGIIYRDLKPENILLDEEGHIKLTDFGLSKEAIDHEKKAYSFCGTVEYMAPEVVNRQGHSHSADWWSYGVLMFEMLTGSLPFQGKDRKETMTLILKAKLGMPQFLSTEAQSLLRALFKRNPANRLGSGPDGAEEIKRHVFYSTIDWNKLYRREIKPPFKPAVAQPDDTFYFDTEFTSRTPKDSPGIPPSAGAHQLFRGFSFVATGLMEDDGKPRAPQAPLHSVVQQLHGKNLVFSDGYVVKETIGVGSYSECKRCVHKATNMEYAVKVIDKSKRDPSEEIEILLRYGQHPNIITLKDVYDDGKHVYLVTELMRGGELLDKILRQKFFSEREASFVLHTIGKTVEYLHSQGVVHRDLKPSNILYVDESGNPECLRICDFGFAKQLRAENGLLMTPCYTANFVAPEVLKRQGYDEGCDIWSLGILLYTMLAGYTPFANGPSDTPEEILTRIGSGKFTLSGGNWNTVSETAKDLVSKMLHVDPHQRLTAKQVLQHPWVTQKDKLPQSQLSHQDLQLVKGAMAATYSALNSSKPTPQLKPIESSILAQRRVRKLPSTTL

SMILES: CN(C)C/C=C/C(=O)Nc1ccc(C(=O)N2CCCC(Nc3ncc(Cl)c(-c4c[nH]c5ccccc45)n3)C2)cc1 (centres undefined)
% of control [1]: 14%

SMILES: O[C@H]1CC[C@H](Nc2ncc3nc(Nc4c(F)cc(F)cc4F)n([C@H]4CCOC4)c3n2)CC1
% of control [2]: 85%

SMILES: CNC(=O)Nc1ccc(-c2nc(N3CC4CCC(C3)O4)c3cnn(C4CCC5(CC4)OCCO5)c3n2)cc1
% of inhibition [3]: 1%

SMILES: C=CC(=O)Nc1cc(-n2c(=O)ccc3cnc4ccc(-c5ccc(NS(C)(=O)=O)cc5)cc4c32)ccc1C
% of control ([4]; at 1 µM): 84% | % of control ([4]; at 10 µM): 100% | % of control ([5]; at 1 µM): 72% | % of control ([5]; at 10 µM): 60%

IC50 [6]: > 10 µM
SMILES: CCc1cccc(CC)c1NC(=O)c1nn(C)c2c1CCc1cnc(Nc3ccc(C(=O)NC4CCN(C)CC4)cc3OC(F)(F)F)nc1-2

SMILES: COc1cc(N(C)c2ccnc3ccc(C(F)(F)F)cc23)cc(OC)c1OC
% binding [7]: 95%
